Measurements as given in patent US12421216B2, “Voruciclib polymorphs and methods of making and using thereof” (MEI PHARMA, INC., priority 2019, dated 2025).
Structures can show the parent of a compound that is named as a salt. Where two headings read alike, the source gives them in different places.

Columns and labels:
[1] = dog, in vivo
Description: Each salt form was formulated into tablets with identical formulations. 9 dogs were divided into three group of 3 dogs/group. Each group received one of the following different pre-treatments: • 1. No pretreatment (natural gastric pH—could be acidic or alkaline) • 2. Famotidine (causes alkaline gastric pH) • 3. Pentagastrin (causes acidic gastric pH) The study used a crossover design. Each group of dogs first received pretreatment and was dosed with the Voruciclib HCl salt. After a washout period, the same group of dogs received the same pretreatment and was dosed with the Voruciclib malonate salt. The results were then analyzed for variability. […]
Clinical observations were recorded at least once daily, approximately 1 hour post-Voruciclib dose on dosing days. Body weight measurements were recorded for randomization, prior to dose administration (Day 1 and 8), and on the last day of the washout period following Phase 1 (Day 7). […]
Pharmacokinetic Analysis: Pharmacokinetic (PK) analyses were performed on the individual plasma concentration versus time data for Voruciclib using Phoenix WinNonlin non-compartmental analysis. To evaluate drug absorption, the PK parameter C max (maximum plasma concentration) was measured.
For each dog, the actual administered dose of voruciclib free base was calculated on a mg/kg basis, using the dog body weight data. […]

[2] = Quantitative solubility determination of voruciclib malonate after the thermocycling experiments (UPLC); assay type: physicochemical
Description: Moreover, after the thermocycling experiments, an aliquot of the mother liquor was taken and analyzed by UPLC to determine the API solubility. After that, the solutions were evaporated under vacuum (5 mbar) and the dry solids were analyzed by HT-XRPD. The solids were then exposed to accelerated aging conditions (2 days at 40° C./75% RH) followed by HT-XRPD re-analysis. Suspensions of amorphous voruciclib malonate salt were prepared in 24 solvents. After the temperature profile, an aliquot of mother liquor was taken, filtered and analyzed by UPLC to determine the API solubility. A small aliquot of mother liquor was taken and filtered using 0.2 μM PTFE syringe filters. The concentration of solute was determined by UPLC analysis. After that, the solutions were evaporated under vacuum (5 mbar) and the dry solids were analyzed by HT-XRPD. The solids were then exposed to accelerated aging conditions (2 days at 40° C./75% RH) followed by HT-XRPD re-analysis.

[3] = Dynamic Vapor Sorption (DVS) hygroscopicity; assay type: physicochemical; conditions: for Water uptake: 25° C./80% RH; for Hygroscopicity classification: European Pharmacopoeia classification, water uptake at 25° C./80% RH; for Solid form recovered after DVS analysis: XRPD after sorption-desorption-sorption cycle
Description: (§1) Differences in hygroscopicity (moisture uptake) of the various forms of a solid material provided a measure of their relative stability at increasing relative humidity. Moisture sorption isotherms of small samples were obtained using a DVS-1 system from Surface Measurement Systems (London, UK); this instrument is suitable for use with a few milligrams of sample, with an accuracy of 0.1 μg. The relative humidity was varied during sorption-desorption-sorption (45-95-0-45% RH) at a constant temperature of 25° C. Weight equilibration per step was set at dm/dt <0.0002 for a minimum of 1 hour or maximum of 6 hours. Afterwards the sample was measured by HT-XRPD.
The hygroscopicity was classified according to the European Pharmacopoeia Hygroscopicity classification.
as §1, with “(40-95-0-40%” for “(45-95-0-45%”
as §1, with “use with as little as a few” for “use with a few”
The hygroscopicity of Mao1 was determined by DVS. The powder was exposed to a RH profile consisting of sorption/desorption/sorption cycles (40-95-0-40% RH) performed at 25° C. The water vapor uptake gained during the sorption half-cycle was 0.75%.

Structure (SMILES): CN1CC[C@H](c2c(O)cc(O)c3c(=O)cc(-c4ccc(C(F)(F)F)cc4Cl)oc23)[C@H]1CO (stereo in doubt) [voruciclib malonate, 2-(2-chloro-4-(trifluoromethyl)phenyl)-5,7-dihydroxy-8-((2S,3R)-2-(hydroxymethyl)-1-methylpyrrolidin-3-yl)-4H-chromen-4-one malonate salt]
- Variability of absorption [1]: lower than the hydrochloride salt
- solubility ([2]; 1,2-dimethoxyethane, organic solvent or mixture, thermodynamic from solid, 1,2-Dimethoxyethane, read-out: Solubility): 2.3 mg/mL
- solubility ([2]; 1,4-dioxane, organic solvent or mixture, thermodynamic from solid, 1,4-Dioxane, read-out: Solubility): 0.9 mg/mL
- solubility ([2]; 2-propanol, organic solvent or mixture, thermodynamic from solid, 2-Propanol, read-out: Solubility): 5.1 mg/mL
- solubility ([2]; 2-propanol/water (90/10), organic solvent or mixture, thermodynamic from solid, 2-Propanol/water (90/10), read-out: Solubility): 130 mg/mL
- solubility ([2]; IPA, acetone, AcN, MEK and 1,2-dimethoxyethane, organic solvent or mixture, thermodynamic from solid, IPA, acetone, AcN, MEK and 1,2-dimethoxyethane, read-out: Solubility classification): 1 to 10 mg/mL
- solubility ([2]; THF, water and EtOH, water, thermodynamic from solid, THF, water and EtOH, read-out: Solubility classification): 10 to 33 mg/mL
- solubility ([2]; acetone, organic solvent or mixture, thermodynamic from solid, Acetone, read-out: Solubility): 5 mg/mL
- solubility ([2]; acetone/water (90/10), organic solvent or mixture, thermodynamic from solid, Acetone/water (90/10), read-out: Solubility): 245 mg/mL
- solubility ([2]; acetone/water (90/10, v/v) and IPA/water (90/10, v/v), organic solvent or mixture, thermodynamic from solid, acetone/water (90/10, v/v) and IPA/water (90/10, v/v), read-out: Solubility classification): 100 to 1000 mg/mL
- solubility ([2]; acetonitrile, organic solvent or mixture, thermodynamic from solid, Acetonitrile, read-out: Solubility): 3 mg/mL
- solubility ([2]; anisole, organic solvent or mixture, thermodynamic from solid, Anisole, read-out: Solubility): < 0.04 mg/mL
- solubility ([2]; chloroform, organic solvent or mixture, thermodynamic from solid, Chloroform, read-out: Solubility): 0.5 mg/mL
- solubility ([2]; cyclohexane, organic solvent or mixture, thermodynamic from solid, Cyclohexane, read-out: Solubility): < 0.07 mg/mL
- solubility ([2]; dichloromethane, organic solvent or mixture, thermodynamic from solid, Dichloromethane, read-out: Solubility): 0.3 mg/mL
- solubility ([2]; diethyl ether, organic solvent or mixture, thermodynamic from solid, Diethyl ether, read-out: Solubility): < 0.04 mg/mL
- solubility ([2]; ethanol, organic solvent or mixture, thermodynamic from solid, Ethanol, read-out: Solubility): 13.6 mg/mL
- solubility ([2]; ethyl acetate, organic solvent or mixture, thermodynamic from solid, Ethyl acetate, read-out: Solubility): 0.3 mg/mL
- solubility ([2]; ethyl formate, organic solvent or mixture, thermodynamic from solid, Ethyl formate, read-out: Solubility): 0.4 mg/mL
- solubility ([2]; isopropyl acetate, organic solvent or mixture, thermodynamic from solid, Isopropyl acetate, read-out: Solubility): 0.1 mg/mL
- solubility ([2]; methanol, organic solvent or mixture, thermodynamic from solid, Methanol, read-out: Solubility): 65.7 mg/mL
- solubility ([2]; methanol, organic solvent or mixture, thermodynamic from solid, methanol, read-out: Solubility classification): 33 to 100 mg/mL
- solubility ([2]; methyl ethyl ketone, organic solvent or mixture, thermodynamic from solid, Methyl ethyl ketone, read-out: Solubility): 2.9 mg/mL
- solubility ([2]; n-heptane, organic solvent or mixture, thermodynamic from solid, n-Heptane, read-out: Solubility): < 0.06 mg/mL
- solubility ([2]; organic solvent or mixture, thermodynamic from solid, 1,4-dioxane, chloroform, ethyl formate, DCM, ethyl acetate and isopropyl acetate, read-out: Solubility classification): 0.1 to 1 mg/mL
- solubility ([2]; organic solvent or mixture, thermodynamic from solid, toluene, anisole, MTBE, diethyl ether, pentane, cyclohexane and n-heptane, read-out: Solubility classification): < 0.1 mg/mL
- solubility ([2]; pentane, organic solvent or mixture, thermodynamic from solid, Pentane, read-out: Solubility): < 0.05 mg/mL
- solubility ([2]; tert-butyl methyl ether, organic solvent or mixture, thermodynamic from solid, tert-Butyl methyl ether, read-out: Solubility): < 0.04 mg/mL
- solubility ([2]; tetrahydrofuran, organic solvent or mixture, thermodynamic from solid, Tetrahydrofuran, read-out: Solubility): 14.2 mg/mL
- solubility ([2]; toluene, organic solvent or mixture, thermodynamic from solid, Toluene, read-out: Solubility): < 0.04 mg/mL
- solubility ([2]; water, thermodynamic from solid, Water, read-out: Solubility): 13.6 mg/mL

Structure (SMILES): CN1CC[C@@H](c2c(O)cc(O)c3c(=O)cc(-c4ccc(C(F)(F)F)cc4Cl)oc23)[C@@H]1CO.O=C(O)CC(=O)O [Mao1]
- Water uptake gained during the first sorption half-cycle ([3]; DVS, 25° C., 40 to 95% RH): 0.75%
- Water uptake ([3]; DVS): 0.15%
- Hygroscopicity classification [3]: non-hygroscopic
- Solid form recovered after DVS analysis [3]: No solid form conversion was observed

Structure (SMILES): CN1CCC(c2c(O)cc(O)c3c(=O)cc(-c4ccc(C(F)(F)F)cc4Cl)oc23)C1CO.O=P(O)(O)O (stereo not drawn) [Pho1]
- Water uptake ([3]; DVS): approximately 5.0%
- Hygroscopicity classification [3]: moderately hygroscopic
- Solid form recovered after DVS analysis [3]: Pho1 was recovered
- Stability against variable humidity conditions ([3]; between 0-95% RH): stable against variable humidity conditions
